The target in test [1] is T1, JAK3 (Homo sapiens, UniProt P52333).
T1 construct: ChemPartner (contract assay service)
T1 sequence (P52333 1-1124): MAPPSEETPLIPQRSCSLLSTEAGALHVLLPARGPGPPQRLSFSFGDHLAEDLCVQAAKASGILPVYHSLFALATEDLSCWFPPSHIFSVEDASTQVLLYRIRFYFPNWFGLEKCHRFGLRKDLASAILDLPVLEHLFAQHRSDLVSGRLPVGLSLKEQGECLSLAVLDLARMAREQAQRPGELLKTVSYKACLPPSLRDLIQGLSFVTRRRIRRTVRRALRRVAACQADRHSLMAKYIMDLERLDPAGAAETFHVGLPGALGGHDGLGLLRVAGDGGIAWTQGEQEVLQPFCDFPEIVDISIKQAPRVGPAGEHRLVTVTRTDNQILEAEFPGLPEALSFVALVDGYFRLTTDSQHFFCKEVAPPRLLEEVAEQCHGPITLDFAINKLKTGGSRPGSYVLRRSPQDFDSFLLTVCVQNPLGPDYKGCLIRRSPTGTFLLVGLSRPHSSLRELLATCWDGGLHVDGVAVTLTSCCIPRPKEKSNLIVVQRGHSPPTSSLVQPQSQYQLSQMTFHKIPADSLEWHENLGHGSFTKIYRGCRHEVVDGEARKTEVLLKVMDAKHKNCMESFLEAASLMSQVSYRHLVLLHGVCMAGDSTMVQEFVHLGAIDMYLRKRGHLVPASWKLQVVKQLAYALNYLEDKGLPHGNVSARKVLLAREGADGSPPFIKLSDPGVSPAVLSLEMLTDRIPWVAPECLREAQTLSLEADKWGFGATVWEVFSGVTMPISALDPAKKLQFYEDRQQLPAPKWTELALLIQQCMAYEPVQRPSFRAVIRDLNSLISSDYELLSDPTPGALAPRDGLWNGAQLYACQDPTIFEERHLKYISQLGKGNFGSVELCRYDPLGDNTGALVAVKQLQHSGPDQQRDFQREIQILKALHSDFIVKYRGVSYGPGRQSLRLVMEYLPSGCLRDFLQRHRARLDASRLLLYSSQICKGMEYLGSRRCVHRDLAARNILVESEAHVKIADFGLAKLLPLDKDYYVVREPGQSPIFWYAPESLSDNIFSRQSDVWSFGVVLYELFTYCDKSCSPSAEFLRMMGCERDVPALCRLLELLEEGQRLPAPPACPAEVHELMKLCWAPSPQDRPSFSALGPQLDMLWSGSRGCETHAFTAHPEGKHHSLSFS
Kind of test: Enzymatic Caliper Mobility Shift Assay, ATP at Km. The class given is biochemical. From the text: (§1) The assay protocol guides are commercially available from ChemPartner.

For the next test, the target named is T2, EGFR (Homo sapiens, UniProt P00533).
T2 construct: EurofinsCerep (contract assay service)
Kind of test: Cys-containing kinase family panel (EurofinsCerep). The class given is biochemical.
Text: as §1

Another test addresses T3, TEC (Homo sapiens, UniProt P42680).
T3 construct: EurofinsCerep (contract assay service)
As to the kind of experiment: Cys-containing kinase family panel (EurofinsCerep). The class given is biochemical.
Text: as §1

The target of a further test is T4, TXK (Homo sapiens, UniProt P42681).
T4 construct: EurofinsCerep (contract assay service)
Kind of test: Cys-containing kinase family panel (EurofinsCerep). The class given is biochemical.
Text: as §1

The next test addresses T5, CDK1 (Homo sapiens, UniProt P06493).
T5 construct: purchased Eurofins KinaseProfiler (Eurofins Pharma Discovery Services UK, Dundee); JAK3 also ChemPartner
Kind of test: Eurofins Kinase Profiler panel. The class given is biochemical. To be noted: read-out: % inhibition (1μM), DMSO control=100%, lower=stronger.

The target of a further test is T6, CDK2 (Homo sapiens, UniProt P24941).
T6 construct: purchased Eurofins KinaseProfiler (Eurofins Pharma Discovery Services UK, Dundee); JAK3 also ChemPartner
Kind of test: Eurofins Kinase Profiler panel. Conditions: read-out: % inhibition (1μM), DMSO control=100%, lower=stronger. In kind it is biochemical.

In a further test the target is T7, MST1 (Homo sapiens, UniProt Q13043).
T7 construct: purchased Eurofins Pharma Discovery Services UK Limited (Kinase Profiler screening platform)
Kind of test: Eurofins Kinase Profiler panel. The class given is biochemical. To be noted: read-out: % inhibition (1μM), DMSO control=100%, lower=stronger.

Another test deals with T8, Fms (Homo sapiens, UniProt P07333).
T8 construct: purchased Eurofins Pharma Discovery Services UK Limited (Kinase Profiler screening platform)
Kind of test: Eurofins Kinase Profiler panel. The class given is biochemical. To be noted: read-out: % inhibition (1μM), DMSO control=100%, lower=stronger.

For test [2], the target named is T1, JAK3. As to the kind of experiment: Reversibility assay (jump dilution). Conditions: jump dilution experiment. In kind it is biochemical. Here is the method:
This test trial of our compound RB1 was performed on a ChemPartner reversibility assay platform (ChemPartner; Shanghai; China). Jump dilution analysis is commonly used. The compound was tested in duplicate under 2 conditions, preincubation with enzyme and no preincubation. The assay protocol guide is commercially available from ChemPartner.
Supplementary Figure S5. […] RB1 with […]
with kinase buffer that contains peptide substrate, ATP and cofactors at the final concentration for reaction, and read conversion data for 20 times for 1 h on caliper.
(1 picture or pasted object on this page, not shown here)

For test [3], the system named is cytokine gene transcription in joint tissue of CIA mice. As to the kind of experiment: Cytokine gene expression in joints of CIA mice by RT-PCR. The class given is in vivo, mouse.
Test [4] relates to EPO-induced JAK/STAT5 phosphorylation in HEL cells (JAK2). As to the kind of experiment: STAT5 phosphorylation induced by EPO in HEL cells, Western blot.
For test [5], the system named is IL-6-induced JAK/STAT3 phosphorylation in TF-1 cells (JAK1). Kind of test: STAT3 phosphorylation induced by IL-6 in TF-1 cells, Western blot. A general note: In western blotting, separated proteins are transferred to a membrane and probed.
For test [6], the system named is IFN-γ-induced JAK/STAT1 phosphorylation in U2OS cells (JAK1/JAK2). As to the kind of experiment: STAT1 phosphorylation induced by IFN-γ in U2OS cells, Western blot. Conditions: for IC50: Homo sapiens.
Test [7] has as its system GM-CSF-induced JAK/STAT5 phosphorylation in TF-1 cells (JAK2). As to the kind of experiment: STAT5 phosphorylation induced by GM-CSF in TF-1 cells, Western blot.

The record followed here is publication PMC5869712 (Scientific Reports, 2018).

As usually defined, the IC50 is the concentration that inhibits the measured activity by half. In general, inhibition refers to the drop in the measured response relative to a control, in per cent.

Structures are written as SMILES. Like-named read-outs stand apart in the source and are kept apart here. Some results are limits rather than exact numbers.

T4 sequence (P42681 whole entry): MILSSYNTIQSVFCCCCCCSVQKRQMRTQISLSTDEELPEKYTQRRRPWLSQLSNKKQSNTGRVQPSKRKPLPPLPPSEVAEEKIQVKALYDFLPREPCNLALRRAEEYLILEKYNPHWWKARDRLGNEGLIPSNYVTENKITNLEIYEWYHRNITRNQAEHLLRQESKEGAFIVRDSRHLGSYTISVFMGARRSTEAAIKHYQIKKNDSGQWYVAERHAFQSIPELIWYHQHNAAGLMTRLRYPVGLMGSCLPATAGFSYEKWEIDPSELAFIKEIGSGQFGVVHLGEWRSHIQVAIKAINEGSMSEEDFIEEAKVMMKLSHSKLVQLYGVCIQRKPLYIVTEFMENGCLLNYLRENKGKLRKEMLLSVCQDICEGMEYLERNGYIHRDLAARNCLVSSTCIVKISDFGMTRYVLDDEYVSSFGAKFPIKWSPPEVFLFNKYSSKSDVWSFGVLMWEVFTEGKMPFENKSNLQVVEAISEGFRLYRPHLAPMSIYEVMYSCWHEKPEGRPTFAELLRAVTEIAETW
T2 sequence (P00533 25-1210): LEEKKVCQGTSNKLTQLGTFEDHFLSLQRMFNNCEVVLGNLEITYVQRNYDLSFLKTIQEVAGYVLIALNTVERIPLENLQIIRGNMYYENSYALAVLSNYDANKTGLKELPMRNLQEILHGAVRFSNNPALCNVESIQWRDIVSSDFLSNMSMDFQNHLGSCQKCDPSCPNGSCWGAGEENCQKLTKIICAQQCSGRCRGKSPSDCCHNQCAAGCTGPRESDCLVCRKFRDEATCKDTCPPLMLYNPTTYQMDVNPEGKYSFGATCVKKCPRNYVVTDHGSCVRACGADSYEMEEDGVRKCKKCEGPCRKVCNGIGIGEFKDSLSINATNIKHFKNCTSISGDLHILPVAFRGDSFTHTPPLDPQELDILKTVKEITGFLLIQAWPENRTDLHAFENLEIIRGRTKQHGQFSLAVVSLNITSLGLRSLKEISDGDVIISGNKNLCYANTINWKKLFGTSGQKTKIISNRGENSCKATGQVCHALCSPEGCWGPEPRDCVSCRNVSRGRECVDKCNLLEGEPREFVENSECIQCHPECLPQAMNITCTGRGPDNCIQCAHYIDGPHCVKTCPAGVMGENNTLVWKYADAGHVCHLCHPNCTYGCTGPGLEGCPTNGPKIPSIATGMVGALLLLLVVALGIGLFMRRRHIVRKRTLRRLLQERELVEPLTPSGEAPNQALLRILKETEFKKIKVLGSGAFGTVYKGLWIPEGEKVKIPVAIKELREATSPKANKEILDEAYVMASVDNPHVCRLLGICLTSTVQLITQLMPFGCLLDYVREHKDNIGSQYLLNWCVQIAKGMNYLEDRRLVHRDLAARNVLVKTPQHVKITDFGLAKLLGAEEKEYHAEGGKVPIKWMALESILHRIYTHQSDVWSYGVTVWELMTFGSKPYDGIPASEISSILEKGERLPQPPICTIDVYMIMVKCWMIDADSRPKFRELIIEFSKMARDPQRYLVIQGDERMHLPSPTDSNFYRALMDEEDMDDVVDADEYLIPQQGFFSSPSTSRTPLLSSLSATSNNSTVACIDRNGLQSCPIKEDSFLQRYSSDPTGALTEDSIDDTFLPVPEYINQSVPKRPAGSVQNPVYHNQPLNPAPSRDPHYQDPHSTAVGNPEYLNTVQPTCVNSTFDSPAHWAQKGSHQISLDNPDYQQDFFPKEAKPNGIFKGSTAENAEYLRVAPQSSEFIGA
T5 sequence (P06493 whole entry): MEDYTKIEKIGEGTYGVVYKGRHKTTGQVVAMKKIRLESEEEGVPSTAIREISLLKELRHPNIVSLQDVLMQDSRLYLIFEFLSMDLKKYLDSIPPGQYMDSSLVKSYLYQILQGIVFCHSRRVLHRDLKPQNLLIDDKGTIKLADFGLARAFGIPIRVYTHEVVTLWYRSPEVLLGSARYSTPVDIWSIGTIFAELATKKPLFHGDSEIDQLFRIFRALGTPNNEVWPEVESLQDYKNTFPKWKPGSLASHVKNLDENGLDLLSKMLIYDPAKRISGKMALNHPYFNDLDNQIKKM
T5 sequence (P14635 whole entry partner): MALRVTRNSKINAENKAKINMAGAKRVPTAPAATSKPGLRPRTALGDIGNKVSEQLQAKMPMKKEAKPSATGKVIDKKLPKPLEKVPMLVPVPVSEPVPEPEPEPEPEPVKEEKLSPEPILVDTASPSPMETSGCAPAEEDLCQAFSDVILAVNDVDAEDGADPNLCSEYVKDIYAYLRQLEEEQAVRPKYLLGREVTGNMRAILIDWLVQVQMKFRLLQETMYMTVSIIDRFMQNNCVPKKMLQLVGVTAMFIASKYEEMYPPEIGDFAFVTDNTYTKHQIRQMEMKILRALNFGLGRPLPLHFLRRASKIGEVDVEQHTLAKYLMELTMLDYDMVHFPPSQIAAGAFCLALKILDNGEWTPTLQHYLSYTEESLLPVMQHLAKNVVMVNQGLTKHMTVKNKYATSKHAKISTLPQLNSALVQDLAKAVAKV
T7 sequence (Q13043 whole entry): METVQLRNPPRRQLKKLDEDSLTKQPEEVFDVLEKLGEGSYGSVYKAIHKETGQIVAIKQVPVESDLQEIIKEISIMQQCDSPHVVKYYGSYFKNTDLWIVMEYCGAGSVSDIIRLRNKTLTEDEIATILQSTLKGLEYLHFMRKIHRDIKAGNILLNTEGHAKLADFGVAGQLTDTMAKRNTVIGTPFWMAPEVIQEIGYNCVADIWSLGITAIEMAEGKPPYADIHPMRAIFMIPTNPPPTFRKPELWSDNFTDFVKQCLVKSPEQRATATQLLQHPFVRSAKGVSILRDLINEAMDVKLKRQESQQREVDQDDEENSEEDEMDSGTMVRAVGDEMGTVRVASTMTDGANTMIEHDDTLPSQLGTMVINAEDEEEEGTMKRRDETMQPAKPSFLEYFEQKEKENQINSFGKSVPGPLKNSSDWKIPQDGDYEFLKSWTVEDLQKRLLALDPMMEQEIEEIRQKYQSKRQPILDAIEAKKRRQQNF
T3 sequence (P42680 whole entry): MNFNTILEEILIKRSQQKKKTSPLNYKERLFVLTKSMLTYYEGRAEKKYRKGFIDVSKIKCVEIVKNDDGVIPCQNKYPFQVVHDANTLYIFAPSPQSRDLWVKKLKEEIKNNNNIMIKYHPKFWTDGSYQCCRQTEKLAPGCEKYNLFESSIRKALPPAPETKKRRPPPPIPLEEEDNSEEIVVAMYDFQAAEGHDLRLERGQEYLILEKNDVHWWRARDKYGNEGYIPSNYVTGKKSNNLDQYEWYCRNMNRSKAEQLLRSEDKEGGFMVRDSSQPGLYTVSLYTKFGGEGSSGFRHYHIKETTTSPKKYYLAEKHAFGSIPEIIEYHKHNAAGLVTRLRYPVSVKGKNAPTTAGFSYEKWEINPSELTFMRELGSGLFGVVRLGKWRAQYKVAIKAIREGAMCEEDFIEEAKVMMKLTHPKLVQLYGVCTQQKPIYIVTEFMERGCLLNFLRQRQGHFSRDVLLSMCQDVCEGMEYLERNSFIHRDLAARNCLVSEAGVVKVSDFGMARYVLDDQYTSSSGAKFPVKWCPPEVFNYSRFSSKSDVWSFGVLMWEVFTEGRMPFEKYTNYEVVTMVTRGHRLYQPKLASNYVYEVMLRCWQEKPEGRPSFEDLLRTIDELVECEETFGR
T8 sequence (P07333 20-972): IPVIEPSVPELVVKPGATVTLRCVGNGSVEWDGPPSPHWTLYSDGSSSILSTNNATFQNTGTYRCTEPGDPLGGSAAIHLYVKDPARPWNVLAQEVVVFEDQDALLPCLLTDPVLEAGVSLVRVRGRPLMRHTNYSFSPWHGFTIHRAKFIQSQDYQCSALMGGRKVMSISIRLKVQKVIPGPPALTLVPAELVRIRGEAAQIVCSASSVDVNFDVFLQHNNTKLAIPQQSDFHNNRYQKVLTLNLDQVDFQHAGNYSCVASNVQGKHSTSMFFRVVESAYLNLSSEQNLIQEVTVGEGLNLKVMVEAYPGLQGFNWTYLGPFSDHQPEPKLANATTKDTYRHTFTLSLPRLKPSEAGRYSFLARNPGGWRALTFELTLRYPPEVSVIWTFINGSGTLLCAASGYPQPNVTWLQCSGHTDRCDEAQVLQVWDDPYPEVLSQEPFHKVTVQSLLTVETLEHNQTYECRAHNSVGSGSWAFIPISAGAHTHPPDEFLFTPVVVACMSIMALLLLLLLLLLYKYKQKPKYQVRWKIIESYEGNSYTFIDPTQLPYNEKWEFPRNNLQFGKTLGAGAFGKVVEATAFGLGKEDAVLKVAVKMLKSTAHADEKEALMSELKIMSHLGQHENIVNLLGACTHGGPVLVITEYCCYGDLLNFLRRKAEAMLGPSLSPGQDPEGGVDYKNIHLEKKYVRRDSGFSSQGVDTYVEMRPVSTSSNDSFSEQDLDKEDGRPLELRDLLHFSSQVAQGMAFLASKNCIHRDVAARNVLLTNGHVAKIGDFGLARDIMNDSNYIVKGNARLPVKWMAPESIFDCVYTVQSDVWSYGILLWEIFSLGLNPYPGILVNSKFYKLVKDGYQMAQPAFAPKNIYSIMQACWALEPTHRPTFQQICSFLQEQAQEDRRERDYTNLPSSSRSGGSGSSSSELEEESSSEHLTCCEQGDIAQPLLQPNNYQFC

In the case of `C=CC(=O)N[C@@H]1CCCN(c2ncnc3[nH]ccc23)C1` [RB1], the IC50 on JAK3 [1] is 0.04 µM; in [4] (Homo sapiens), more than 50 µM; in [5] (Homo sapiens, TF-1, read-out: IC50, STAT and JAK phosphorylation), more than 50 µM; in test [6] (U2OS, read-out: IC50 (nM) JAK1), more than 50000 nM; in test [6] (U2OS, read-out: IC50 (nM) JAK2), more than 50000 nM; in test [7] (Homo sapiens) it was more than 50 µM. Moreover, the “preference for JAK3 above JAK2, JAK1 and TYK2” value at JAK3 [1] (kinase assay) is on record as “over 100 fold”. Also, the inhibition at 1 µM turned out to be 11.2% against EGFR, 14% at TEC and 7.25% on TXK. Moreover, the activity at 1 µM on CDK1 amounted to 96%; at CDK2 it was 93%; on MST1 it was 83%; at Fms it was 90%. Further, the “active JAK3 over time after preincubation” value on JAK3 [2] is recorded as “no active JAK3 was detected”. The IL-10 expression entry in [3] is “significantly increased its expression”. Further, the “gene transcription levels of IL-1, IL-2 and IL-6” value in test [3] is on record as “dose-dependently reduced”. Also, the “TNF-α and IFN-γ gene transcription levels” value in [3] (p < 0.01) is “significantly reduced”. For the same molecule, the “Selectivity JAK2/JAK3” value in [4] (EPO, pSTAT5) is recorded as more than 1000; in test [6] (U2OS, IFN-γ, pSTAT1) it was more than 1000; in test [7] (GM-CSF, pSTAT5) it was more than 1000. Also, the “Selectivity JAK1/JAK3” value in test [5] (TF-1, IL-6, pSTAT3) is more than 1000; in test [6] (U2OS, IFN-γ, pSTAT1), more than 1000. The “IFN-γ-induced phosphorylation of STAT1” value in test [6] (U2OS cells, RB1 at concentrations over 50 μM) is on record as “not affected”.
